The source of these data is US20030229053A1, “Compounds and methods for the treatment or prevention of flavivirus infections” (Shire BioChem Inc., priority 2001, published 2003).

In the first test the target is HCV NS5B RNA-dependent RNA polymerase (Hepatitis C virus genotype 1b, UniProt P26663). Kind of test: In vitro RNA-dependent RNA polymerase assay (Assay 1), polyA/oligo dT, TCA precipitation. It counts as biochemical.
Chain of HCV NS5B RNA-dependent RNA polymerase (P26663 2420-3010 limits assumed): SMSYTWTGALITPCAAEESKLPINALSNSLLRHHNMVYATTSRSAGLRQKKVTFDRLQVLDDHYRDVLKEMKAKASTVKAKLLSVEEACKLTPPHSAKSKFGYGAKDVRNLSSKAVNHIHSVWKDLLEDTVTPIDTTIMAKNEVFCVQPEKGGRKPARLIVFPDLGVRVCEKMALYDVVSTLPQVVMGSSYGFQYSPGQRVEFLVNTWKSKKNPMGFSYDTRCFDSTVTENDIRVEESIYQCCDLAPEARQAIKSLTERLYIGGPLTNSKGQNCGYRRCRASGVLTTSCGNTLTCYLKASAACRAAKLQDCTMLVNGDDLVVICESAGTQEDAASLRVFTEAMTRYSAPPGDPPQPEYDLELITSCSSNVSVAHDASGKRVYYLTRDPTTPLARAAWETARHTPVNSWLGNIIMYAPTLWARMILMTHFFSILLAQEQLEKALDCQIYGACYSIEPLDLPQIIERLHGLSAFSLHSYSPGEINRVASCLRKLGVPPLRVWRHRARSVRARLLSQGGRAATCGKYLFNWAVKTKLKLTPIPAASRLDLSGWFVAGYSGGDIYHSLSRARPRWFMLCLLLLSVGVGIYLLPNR
Conditions: not given
How it is done: Purification of Recombinant NS5B Using Fast Protein Liquid Chromatography (FPLC):
Soluble NS5B protein in the S3 fraction was diluted to lower the NaCl concentration to 300 mM, then it incubated batchwise with DEAE sepharose beads (Amersham-Pharmacia) for 2 hrs at 4° C., as described by Behrens et al. (1996). Unbound material was cleared by centrifugation for 15 min at 4° C., at 25,000 rpm using a SW41 rotor (Beckman). The supernatant was further diluted to lower the NaCl concentration to 200 mM and subsequently loaded, with a flow rate of 1 ml/min, on a 5 ml HiTrap® heparin column (Amersham-Pharmacia) connected to an FPLC® system (Amersham-Pharmacia). Bound proteins were eluted in 1 ml fractions, using a continuous NaCl gradient of 0.2 to 1 M, over a 25 ml volume. NS5B-containing fractions were identified by sodium dodecyl sulfate polyacrylamide gel electrophoresis (SDS-PAGE), followed by western blotting using the anti-NS5B antiserum at a dilution of 1:2000. Positive fractions were pooled and the elution buffer was exchanged against a 50 mM NaPO4 pH 7.0, 20% glycerol, 0.5% triton X-100 and 10 mM DTT, using a PD-10 column (Amersham-Pharmacia). The sample was then loaded onto a 1 ml HiTrap® SP column (Amersham-Pharmacia), with a flow rate of 0.1 ml/min. Bound proteins were eluted using a continuous 0 to 1 M NaCl gradient over a 15 ml volume. Eluted fractions were analyzed by SDS-PAGE and western blotting. Alternatively, proteins were visualized, following SDS-PAGE, by silver staining using the Silver Stain Plus kit (BioRad) as described by the manufacturer. […]
In vitro RNA-dependent RNA Polymerase Assays Used to Evaluate Biaryl Analogues (Assay 1):
RdRp assays were conducted using the homopolymeric template/primer polyA/oligo dT. All RdRp reactions were performed in a total volume of 50 μl, and in a basic buffer consisting of 20 mM Tris-HCl pH 7.5, 1 mM DTT, 50 mM NaCl, 5 mM MgCl2, 0.5 μCi […] (3000 Ci/mmol), 15 μM cold UTP and 20 U RNasin (Promega). Standard HCV RdRp reactions contained 200 ng of purified NS5B protein. PolyA RNAs (Amersham-Pharmacia) was resuspended at 400 ng/μl. The primer oligodT15 (Canadian life technologies) was diluted to a concentration of […] (7.6 ng/μl). Templates and primers were mixed volume to volume, denatured at 95° C. for 5 min and annealed at 37° C. for 10 min. Following a two hour incubation at 22° C., reactions were stopped by the addition of 100 μg of sonicated salmon sperm DNA (Life Technologies) and 1 ml of 10% trichloroacetic acid-0.5% tetrasodium pyrophosphate (TCA-PPi). Nucleic acids were precipitated at 4° C. for 30 min after which samples were filtered on GF/C glass microfiber filters (Millipore). Membranes were subsequently washed with 25 ml of a 1% TCA-0.1% PPi solution, then air dried. Incorporated radioactivity was quantified using a liquid scintillation counter (1450-Microbeta, Wallac). Results are shown in Table 1, in the column indicated as Assay 1.
For orientation: IC50 means the concentration at which inhibition is half-maximal. In the case of `O=C(O)[C@H](Cc1ccccc1)N(Cc1cccc(Br)c1)C(=O)c1ccc(Cl)cc1` [compound #15, (2s)-2-[(3-Bromo-benzyl)-(4-chloro-benzoyl)-amino]-3-phenyl-propionic acid], the IC50 fell in the range of 5 to 20 µM.

Staying with this test, now noted: polyA/oligo dT template/primer, 200 ng NS5B, 2 h at 22° C.; read-out: RNA pol Assay 1 IC50 (μm).
Take `O=C(O)[C@H](Cc1ccccc1)N(Cc1ccc(Br)o1)C(=O)c1ccc(Cl)cc1Br` [compound #68, (2s)-2-[(2-Bromo-4-chloro-benzoyl)-(5-bromo-furan-2-ylmethyl)-amino]-3-phenyl-propionic acid]: the IC50 is < 5 µM. Same read-out and setting: in the case of `O=C(O)[C@H](Cc1ccccc1)N(Cc1ccc(-c2nccs2)o1)C(=O)c1ccc(Cl)cc1Cl` [compound #74, (2s)-2-[(2,4-Dichloro-benzoyl)-(5-thiazol-2-yl-furan-2-ylmethyl)-amino]-3-phenyl-propionic acid] it was < 5 µM; in that of `O=C(O)[C@H](Cc1ccccc1)N(Cc1ccc(-c2cccc(Cl)c2)o1)C(=O)c1ccc(Cl)cc1Cl` [compound #123, (2s)-2-[[5-(3-Chloro-phenyl)-furan-2-ylmethyl]-(2,4-dichloro-benzoyl)-amino]-3-phenyl-propionic acid], < 5 µM; in that of `O=C(O)[C@H](Cc1ccccc1)N(Cc1ccc(-c2cc(F)cc(F)c2)s1)C(=O)c1ccc(Cl)cc1Cl` [compound #95, (2s)-2-{(2,4-Dichloro-benzoyl)-[5-(3,5-difluoro-phenyl)-thiophen-2-ylmethyl]-amino}-3-phenyl-propionic acid], < 5 µM.

As for `COc1cc(C)c(S(=O)(=O)N(Cc2ccc(-c3cc4ccccc4o3)cc2)[C@@H](Cc2ccccc2)C(=O)O)c(C)c1C` [compound #5, (2s)-2-[(4-Benzofuran-2-yl-benzyl) -(4-methoxy-2,3,6-trimethyl-benzenesulfonyl)-amino]-3-phenyl-propionic acid], the concentration for half-maximal inhibition (IC50) was < 5 µM.

`O=C(O)[C@H](Cc1ccccc1)N(Cc1cc(-c2ccc(Cl)c(Cl)c2)cs1)C(=O)c1ccc(Cl)cc1Cl` [compound #87, (2s)-2-{(2,4-Dichloro-benzoyl)-[4-(3,4-dichloro-phenyl)-thiophen-2-ylmethyl]-amino}-3-phenyl-propionic acid]: the IC50 is < 5 µM. On the same count and under the same terms, in the case of `O=C(O)C(Cc1ccccc1)N(Cc1ccc(-c2cc3ccccc3o2)cc1)C(=O)c1ccc(Cl)cc1Cl` (stereo in doubt) [compound #4, (2s)-2-[(4-Benzofuran-2-yl-benzyl)-(2,4-dichloro-benzoyl)-amino]-3-phenyl-propionic acid] it was < 5 µM. `COc1cc(C)c(S(=O)(=O)N(Cc2ccc(I)cc2)[C@@H](Cc2ccccc2)C(=O)O)c(C)c1C` [compound #16, (2s)-2-[(4-Iodo-benzyl)-(4-methoxy-2,3,6-trimethyl-benzenesulfonyl)-amino]-3-phenyl-propionic acid]: the IC50 fell in the range of 5 to 20 µM. On the same count and under the same terms, in the case of `O=C(O)[C@H](CC1CCCCC1)N(Cc1ccc(-c2cc3ccccc3o2)cc1)C(=O)c1ccc(Cl)cc1Cl` [compound #47, (2s)-2-[(4-Benzofuran-2-yl-benzyl)-(2,4-dichloro-benzoyl)-amino]-3-cyclohexyl-propionic acid] it was < 5 µM. For the molecule `O=C(O)c1cccc(-c2ccc(CN(C(=O)c3ccc(Cl)cc3Cl)[C@@H](Cc3ccccc3)C(=O)O)s2)c1` [compound #125, (2s)-3-(5-{[(1-Carboxy-2-phenyl-ethyl)-(2,4-dichloro-benzoyl)-amino]-methyl}-thiophen-2-yl)-benzoic acid], the half-inhibitory concentration (IC50) was < 5 µM.

As for `O=C(O)[C@H](Cc1ccccc1)N(Cc1cccc(Br)c1)C(=O)c1ccc(Cl)cc1I` [compound #35, (2s)-2-[(3-Bromo-benzyl)-(4-chloro-2-iodo-benzoyl)-amino]-3-phenyl-propionic acid], the IC50 is < 5 µM. On the same count and under the same terms, for `O=C(O)[C@H](Cc1ccccc1)N(Cc1cnc(N2CCN(Cc3ccccc3)CC2)s1)C(=O)c1ccc(Cl)cc1Cl` [compound #102, (2s)-2-[[2-(4-Benzyl-piperazin-1-yl)-thiazol-5-ylmethyl]-(2,4-dichloro-benzoyl)-amino]-3-phenyl-propionic acid] the value was < 5 µM; for `O=C(O)[C@H](Cc1ccccc1)N(Cc1cc(-c2cc(F)cc(F)c2)cs1)C(=O)c1ccc(Cl)cc1Cl` [compound #129, (2s)-2-{(2,4-Dichloro-benzoyl)-[4-(3,5-difluoro-phenyl)-thiophen-2-ylmethyl]-amino}-3-phenyl-propionic acid], < 5 µM; for `CCc1cc(Cl)ccc1C(=O)N(Cc1cccc(Br)c1)[C@@H](Cc1ccccc1)C(=O)O` [compound #46, (2s)-2-[(3-Bromo-benzyl)-(4-chloro-2-ethyl-benzoyl)-amino]-3-phenyl-propionic acid], < 5 µM. On the same count and under the same terms, for `O=C(O)[C@H](Cc1ccccc1)N(Cc1cc(-c2cccc(F)c2)cs1)C(=O)c1ccc(Cl)cc1Cl` [compound #130, (2s)-2-{(2,4-Dichloro-benzoyl)-[4-(3-fluoro-phenyl)-thiophen-2-ylmethyl]-amino}-3-phenyl-propionic acid] the value was < 5 µM. On the same count and under the same terms, for `O=C(c1cccc(Cl)c1)c1cccc(CN(C(=O)c2ccc(Cl)cc2Cl)[C@@H](Cc2ccccc2)C(=O)O)c1` [compound #41, (2s)-2-[[3-(3-Chloro-benzoyl)-benzyl]-(2,4-dichloro-benzoyl)-amino]-3-phenyl-propionic acid] the value was < 5 µM; for `COc1cc(C)c(S(=O)(=O)N(Cc2cccc(Br)c2)[C@@H](Cc2ccccc2)C(=O)O)c(C)c1C` [compound #17, (2s)-2-[(3-Bromo-benzyl)-(4-methoxy-2,3,6-trimethyl-benzenesulfonyl)-amino]-3-phenyl-propionic acid], 5 to 20 µM. `O=C(O)[C@H](Cc1ccccc1)N(Cc1ccc(-c2cccc(C(F)(F)F)c2)o1)C(=O)c1ccc(Cl)cc1I` [compound #131, (2s)-2-{(4-Chloro-2-iodo-benzoyl)-[5-(3-trifluoromethyl-phenyl)-furan-2-ylmethyl]-amino}-3-phenyl-propionic acid]: the IC50 is < 5 µM.

For `O=C(O)[C@H](Cc1ccccc1)N(Cc1cnc(N2CCCCC2)s1)C(=O)c1ccc(Cl)cc1Cl` [compound #103, (2s)-2-[(2,4-Dichloro-benzoyl)-(2-piperidin-1-yl-thiazol-5-ylmethyl)-amino]-3-phenyl-propionic acid], the IC50 is < 5 µM.

Consider `Cc1ccc(C(=O)N(Cc2cccc(-c3cc4ccccc4o3)c2)[C@@H](Cc2ccccc2)C(=O)O)c(C)c1` [compound #31, (2s)-2-[(3-Benzofuran-2-yl-benzyl)-(2,4-dimethyl-benzoyl)-amino]-3-phenyl-propionic acid], for which the IC50 was < 5 µM. Still for that read-out and setting: for `O=C(O)C[C@H](Cc1ccccc1)N(Cc1ccc(-c2cccc(C(F)(F)F)c2)o1)C(=O)c1ccc(Cl)cc1Cl` [compound #63, (3s)-3-{(2,4-Dichloro-benzoyl)-[5-(3-trifluoromethyl-phenyl)-furan-2-ylmethyl]-amino}-4-phenyl-butyric acid] the value was < 5 µM; for `O=C(O)[C@H](Cc1ccccc1)N(Cc1cnc(N2CCN(c3ccccc3)CC2)s1)C(=O)c1ccc(Cl)cc1Cl` [compound #100, (2s)-2-{(2,4-Dichloro-benzoyl)-[2-(4-phenyl-piperazin-1-yl)-thiazol-5-ylmethyl]-amino}-3-phenyl-propionic acid], 5 to 20 µM; for `O=C(O)[C@H](Cc1ccccc1)N(Cc1cccc(Br)c1)C(=O)c1ccccc1Cl` [compound #10, (2s)-2-[(3-Bromo-benzyl)-(2-chloro-benzoyl)-amino]-3-phenyl-propionic acid], > 20 µM. On the same count and under the same terms, for `O=C(O)[C@H](Cc1ccccc1)N(Cc1ccc(-c2cc(C(F)(F)F)ccc2Cl)o1)C(=O)c1ccc(Cl)cc1Cl` [compound #61, (2s)-2-[[5-(2-Chloro-5-trifluoromethyl-phenyl)-furan-2-ylmethyl]-(2,4-dichloro-benzoyl)-amino]-3-phenyl-propionic acid] the value was < 5 µM.
